Holding throughout (experiment): MIC of compounds alone, broth microdilution (CLSI)
Holding throughout (format): cell-based
A general note: In broth dilution the organism is exposed to a series of concentrations in liquid medium.

In one experiment the test system is P. aeruginosa PAE UFR49. To be noted: Pseudomonas aeruginosa, PAEUFR49, substance alone, VIM-2. As for the experimental part: (§1) Compounds of the present invention were assessed against genotyped bacterial strains alone or in combination with the β-lactam ceftazidime.
The test system of the next experiment is E. coli ECO 190317. The settings on record: Escherichia coli, ECO190317, substance alone, TEM-1, SHV-12, CTX-M-15, OXA-1. As to the method: as §1
The next experiment concerns E. coli ECO UFR39. The settings on record: Escherichia coli, ECOUFR39, substance alone, CTX-M-15, NDM-1. As to the method: as §1
Another experiment deals with P. aeruginosa PAE UFR92. The settings on record: Pseudomonas aeruginosa, PAEUFR92, read-out: MIC alone PAE UFR92. As for the experimental part: as §1
The subject of a further experiment is P. aeruginosa PAE 107051. To be noted: Pseudomonas aeruginosa, PAE107051, substance alone, TEM-24, OXA-1. As to the method:
as §1

Another experiment deals with E. cloacae ECL P99. The settings on record: Enterobacter cloacae, ECLP99, substance alone, AmpC. As to the method: as §1
The test system of experiment [1] is P. aeruginosa PAE 105250 (AH). To be noted: Pseudomonas aeruginosa, substance alone, OXA-15. As for the experimental part: as §1
A further experiment relates to K. pneumoniae KPN 121206. The settings on record: Klebsiella pneumoniae, KPN121206, substance alone, SHV-1, NDM-1. As for the experimental part:
as §1

The values that follow come from patent US11865118B2, “Heterocyclic compounds and their use in preventing or treating bacterial infections” (MUTABILIS, priority 2018, dated 2024).

Structures can show the parent of a compound that is named as a salt. Where only a bound is given, the exact number is not on record here.

As for `CN(C)C(=O)[C@H]1c2nc(C(=O)NCCNC(=N)N)sc2[C@@H]2CN1C(=O)N2OS(=O)(=O)O` (relative stereo) [Example 9, [trans-4-(dimethylcarbamoyl)-2-(2-guanidinoethylcarbamoyl)-5,8-methano-6-oxo-4,8-dihydrothiazolo[4,5-e][1,3]diazepin-7-yl] hydrogen sulfate], the MIC in the experiment with P. aeruginosa PAE UFR49 was 4 µg/mL; in the experiment with E. coli ECO 190317, 32 µg/mL; in the experiment with E. coli ECO UFR39, greater than 32 µg/mL; with P. aeruginosa PAE UFR92, 32 µg/mL; in the experiment on P. aeruginosa PAE 107051, 8 µg/mL; in the experiment with E. cloacae ECL P99 it was greater than 32 µg/mL. Further, the MIC in experiment [1] was 8 µg/mL; with K. pneumoniae KPN 121206, greater than 32 µg/mL.
Consider `CN(C)C(=O)[C@@H]1c2c(CNC(=N)N)csc2[C@H]2CN1C(=O)N2OS(=O)(=O)O.O=C(O)C(F)(F)F` (relative stereo) [Example 10, [N-[[trans-4-(dimethylcarbamoyl)-5,8-methano-6-oxo-7-sulfooxy-4,8-dihydrothieno[2,3-e][1,3]diazepin-3-yl]methyl]carbamimidoyl]ammonium 2,2,2-trifluoroacetate], for which the MIC in the experiment on P. aeruginosa PAE UFR49 is 8 µg/mL; in the experiment with E. coli ECO 190317 it was 2 µg/mL; in the experiment on E. coli ECO UFR39 it was 32 µg/mL; in the experiment on P. aeruginosa PAE UFR92, 8 µg/mL; in the experiment with P. aeruginosa PAE 107051, 4 µg/mL; with E. cloacae ECL P99 it was 16 µg/mL. Moreover, the figures for the MIC (in experiment [1]; in the experiment on K. pneumoniae KPN 121206) were 8 µg/mL and 32 µg/mL, respectively.
Regarding `CN(C)C(=O)[C@@H]1c2c(CCNC(=N)N)csc2C2CN1C(=O)N2OS(=O)(=O)O` (stereo in doubt) [Example 11, [(trans-4-(dimethylcarbamoyl)-3-(2-quanidinoethyl)-5,8-methano-6-oxo-4,8-dihydrothieno[2,3-e][1,3]diazepin-7-yl] hydrogen sulfate], the MIC in the experiment on P. aeruginosa PAE UFR49 is 4 µg/mL; in the experiment on E. coli ECO 190317, 4 µg/mL; with E. coli ECO UFR39 it was greater than 32 µg/mL; with P. aeruginosa PAE UFR92, 8 µg/mL; with P. aeruginosa PAE 107051, 4 µg/mL; with E. cloacae ECL P99, 16 µg/mL. The figures for the MIC (in experiment [1]; in the experiment on K. pneumoniae KPN 121206) were 4 µg/mL and greater than 32 µg/mL, respectively.
Consider `CC(C)(O/N=C(\C(=O)N[C@@H]1C(=O)N2C(C(=O)[O-])=C(C[n+]3ccccc3)CS[C@H]12)c1csc(N)n1)C(=O)O` [CAZ, ceftazidime], for which the MIC in the experiment on P. aeruginosa PAE UFR49 is 64 µg/mL; in the experiment with E. coli ECO 190317, 128 µg/mL; with E. coli ECO UFR39, greater than 256 µg/mL; in the experiment on P. aeruginosa PAE UFR92, 32 µg/mL; in the experiment on P. aeruginosa PAE 107051, 256 µg/mL; in the experiment with E. cloacae ECL P99, 128 µg/mL. In addition, the MIC in experiment [1] is 256 µg/mL; in the experiment with K. pneumoniae KPN 121206, greater than 256 µg/mL.
Turning to `NCCNC(=O)c1nc2c(s1)C1CN(C2)C(=O)N1S(=O)(=O)O` (stereo not drawn) [Example 1, [2-(2-aminoethylcarbamoyl)-5,8-methano-6-oxo-4,8-dihydrothiazolo[4,5-e][1,3]diazepin-7-yl]sulfonic acid], the MIC in the experiment on P. aeruginosa PAE UFR49 is 16 µg/mL; in the experiment on E. coli ECO 190317 it was 0.25 µg/mL; in the experiment with E. coli ECO UFR39, 0.5 µg/mL; with P. aeruginosa PAE UFR92, 8 µg/mL; in the experiment with P. aeruginosa PAE 107051 it was 8 µg/mL; with E. cloacae ECL P99, 2 µg/mL. Further, the MIC in experiment [1] was 8 µg/mL; in the experiment with K. pneumoniae KPN 121206, 32 µg/mL.
Turning to `N=C(N)NCc1nc2c(s1)C1CN(C2)C(=O)N1OS(=O)(=O)O` (stereo not drawn) [Example 2], the minimum inhibitory concentration (MIC) with P. aeruginosa PAE UFR49 was 4 µg/mL; with E. coli ECO 190317 it was 0.063 µg/mL; in the experiment with E. coli ECO UFR39, 0.125 µg/mL; in the experiment with P. aeruginosa PAE UFR92 it was 4 µg/mL; with P. aeruginosa PAE 107051 it was 2 µg/mL; in the experiment with E. cloacae ECL P99 it was 1 µg/mL. Further, the MIC in experiment [1] is 4 µg/mL; in the experiment on K. pneumoniae KPN 121206, greater than 32 µg/mL.
`N=C(N)NCCNC(=O)c1nc2c(s1)C1CN(C2)C(=O)N1OS(=O)(=O)O` (stereo not drawn) [Example 3, [2-(2-quanidinoethylcarbamoyl)-5,8-methano-6-oxo-4,8-dihydrothiazolo[4,5-e][1,3]diazepin-7-yl]sulfonic acid]: the MIC is 16 µg/mL in the experiment on P. aeruginosa PAE UFR49; 0.5 µg/mL in the experiment on E. coli ECO 190317; 2 µg/mL in the experiment with E. coli ECO UFR39; 8 µg/mL with P. aeruginosa PAE UFR92; 4 µg/mL in the experiment on P. aeruginosa PAE 107051; 0.5 µg/mL in the experiment with E. cloacae ECL P99. Moreover, the MIC in experiment [1] amounted to 8 µg/mL; in the experiment with K. pneumoniae KPN 121206 it was 16 µg/mL.
For the molecule `NCc1nc2c(s1)C1CN(C2)C(=O)N1OS(=O)(=O)O` (stereo not drawn) [Example 4], the MIC with P. aeruginosa PAE UFR49 was 32 µg/mL; in the experiment with E. coli ECO 190317, 0.25 µg/mL; with E. coli ECO UFR39, 0.25 µg/mL; with P. aeruginosa PAE UFR92 it was 32 µg/mL; in the experiment on P. aeruginosa PAE 107051, greater than 32 µg/mL; in the experiment on E. cloacae ECL P99, 1 µg/mL. Moreover, the MIC (in experiment [1]; in the experiment on K. pneumoniae KPN 121206) was 32 µg/mL in each case.
With `O=C(Nc1nc2c(s1)C1CN(C2)C(=O)N1OS(=O)(=O)[O-])OCc1ccccc1.[Na+]` (stereo not drawn) [Example 5], the minimum inhibitory concentration (MIC) with P. aeruginosa PAE UFR49, in the experiment with E. coli ECO 190317, in the experiment on E. coli ECO UFR39, in the experiment on P. aeruginosa PAE UFR92, in the experiment with P. aeruginosa PAE 107051 and in the experiment with E. cloacae ECL P99 was greater than 32 µg/mL in each case. The MIC (in experiment [1]; with K. pneumoniae KPN 121206) was greater than 32 µg/mL each time.
Consider `CC(=O)Nc1nc2c(s1)C1CN(C2)C(=O)N1OS(=O)(=O)[O-].[Na+]` (stereo not drawn) [Example 6], for which the MIC with P. aeruginosa PAE UFR49 was greater than 32 µg/mL; with E. coli ECO 190317, 2 µg/mL; in the experiment with E. coli ECO UFR39, 4 µg/mL; with P. aeruginosa PAE UFR92, greater than 32 µg/mL; with P. aeruginosa PAE 107051, greater than 32 µg/mL; in the experiment on E. cloacae ECL P99, 16 µg/mL. In addition, the MIC (in experiment [1]; in the experiment with K. pneumoniae KPN 121206) was greater than 32 µg/mL each time.
For the molecule `O=C1N2Cc3ccsc3C(C2)N1OS(=O)(=O)[O-].[Na+]` (stereo not drawn) [Example 7], the MIC in the experiment with P. aeruginosa PAE UFR49 is greater than 32 µg/mL; in the experiment with E. coli ECO 190317, 2 µg/mL; in the experiment on E. coli ECO UFR39, 4 µg/mL; with P. aeruginosa PAE UFR92, greater than 32 µg/mL; in the experiment with P. aeruginosa PAE 107051, greater than 32 µg/mL; in the experiment with E. cloacae ECL P99, 8 µg/mL. In addition, the MIC (in experiment [1]; with K. pneumoniae KPN 121206) was greater than 32 µg/mL each time.
As for `CCOC(=O)[C@@H]1c2c(-c3ccc(F)cc3)csc2[C@@H]2CN1C(=O)N2OS(=O)(=O)[O-].[Na+]` [Example 8], the MIC in the experiment on P. aeruginosa PAE UFR49, with E. coli ECO 190317, in the experiment on E. coli ECO UFR39, with P. aeruginosa PAE UFR92, in the experiment on P. aeruginosa PAE 107051 and with E. cloacae ECL P99 was greater than 32 µg/mL throughout. The minimal inhibitory concentration (MIC) (in experiment [1]; in the experiment with K. pneumoniae KPN 121206) was greater than 32 µg/mL throughout.

In general, MIC refers to the least concentration at which growth counts as inhibited.
